Tests used:
venous thrombus = assay: Rabbit ear thrombus model, topical low-molecular-weight heparin therapy; assay type: in vivo, New Zealand rabbit; details: 48 hours; for state of thrombus in blood vessel (slice, FIG. 7): 300 U/kg topical
Description: An experimental method: • A topical injection of thrombin is used to establish an animal model of a rabbit ear thrombus: hair of an ear of the New Zealand rabbit is carefully shaven off, a blood vessel section from an external ear vein with a length of about 2 cm and having fewer branches is selected, 40 U of the thrombin is injected into the blood vessel section, and a hemostatic clip is used to block a blood flow of the blood vessel section at a proximal end of a heart. After 2 hours, the blood is completely coagulated to form a venous thrombus, and the hemostatic clip is then loosen. A length of the venous thrombus is measured and recorded, and the rabbit ear successfully modeled is sliced into a slice by the cryostat microtome. After the slice is stained by a hematoxylin and eosin (HE) tissue staining method and fixed by the resin, and the slice is mounted for observation. With respect to the various administration methods, the rabbits successfully modeled are divided into a therapy group for a proximal venous thrombus and a therapy group for a distal venous thrombus, and the rabbits are topically treated by the low-molecular-weight heparin (300 U/kg rabbit body weight) for therapy. […] A pretreatment method is the same as described with respect to in vitro.

[1] = Staining of topical penetration sites of the skin with gentian violet solution; design: species or system nude mouse
Description: Staining of topical penetration sites of the skin: the nude mouse skin topically pretreated by three groups, including the sonophoresis group, the 2 mg spicule group, and the group using sonophoresis and then using the spicules (the method is the same as the aforementioned method), a gentian violet solution is added into the donor compartment, stained for 24 hours, and washed by an ethanol solution, and the residue liquid on the surface is absorbed with absorbent paper, a penetration situation of a surface of the stratum corneum layer for the staining solution is observed, the stratum corneum layer and the epidermal layer of the skin are then scrapped by a blade, and a penetration situation of the dermis layer for the staining solution is observed.

Compound | state of thrombus in blood vessel (slice, FIG. 7) (venous thrombus; sonophoresis then spicules) | state of thrombus in blood vessel (slice, FIG. 7) (venous thrombus; spicules alone) | thrombus dissolvability degree compared with intravenous injection (FIG. 8B) (venous thrombus; distal venous thrombus, sonophoresis then spicules at distal end) | thrombus length variation (FIG. 8A) (venous thrombus; proximal venous thrombus, sonophoresis then spicules) | infiltration of staining solution into the dermis layer ([1]; sonophoresis alone or spicules alone, stained 24 hours (FIGS. 6D and 6E)) | infiltration of staining solution into the dermis layer ([1]; sonophoresis and spicules, stained 24 hours, stratum corneum and epidermal layer scraped off (FIG. 6F))
dalteparin [low-molecular-weight heparin] | almost completely dissolved | not completely dissolved | no significant difference | basically dissolved |  | 
CN(C)c1ccc(C(=C2C=CC(=[N+](C)C)C=C2)c2ccc(N(C)C)cc2)cc1 [staining solution, gentian violet] |  |  |  |  | almost no residue staining solution in the dermis layer | a large amount of the staining solution can still infiltrate into the dermis layer

— patent US12691175B2, “Drug transdermal delivery system” (Xiamen University, priority 2019, dated 2026)
